The values that follow are results of earlier work, collected in patent publication US20030170318A1, “Fluoride compositions and uses thereof” (priority 2000, published 2003).

In one data set the test system is Ras/RasGAP complex. The note with it: fluoride salt added to mixed Ras and GAP; free fluoride needed in solution.
The subject of data set [1] is human leukemia (HL-60) cells.
Another data set concerns Drosophila. The note with it: mutation induced by Trenimon and 1-phenyl-3,3-dimethyltriazene.
Data set [2] relates to osteosarcoma cell line UMR 106. The following applies: 0.5 mM fluoride, UMR 106 cultures.
For data set [3] the following is noted: children.
For a further data set, the system named is normal cells. The following applies: pre, simultaneous and post-treatments; Trenimon-induced chromosomal aberrations.
A further data set has as its system mutant RhoGAP. The note with it: arginine to alanine mutant, in the presence of aluminum fluoride.

Regarding `[Be+2].[F-].[F-]` [beryllium fluoride, reference compound], the Ras/RasGAP complex formation entry in the data set with Ras/RasGAP complex is “readily formed”.
As for `F` [fluoride], the “toxic blood plasma fluoride level” value was “about 15 μM”. Also, the cell death result in data set [1] is reported as “causes cell death”. The “caspase-3 activation leading to apoptosis” value in data set [1] (cleaves poly(ADP-ribose) polymerase) was “activation of caspase-3”. Also, in the data set on Drosophila, the antimutagenic effect result was “strong antimutagenic effect”. Further, in data set [2], the apoptosis result is reported as “induction of apoptosis” and the cell proliferation result is on record as “decrease in cell proliferation”. In addition, the “fluoride retained of all fluoride consumed” value in data set [3] is “twenty”.
For `[F-].[F-].[Mg+2]` [magnesium fluoride], the Ras/RasGAP complex formation result in the data set on Ras/RasGAP complex was “readily formed”.
Take `[F-].[Na+]` [sodium fluoride]: in the data set with normal cells, the “frequency of undamaged mitosis” value is “significantly enhanced”.
As for aluminum fluoride, in the data set on mutant RhoGAP, the “hydrolysis of RhoGTP to RhoGDP by mutant RhoGAP” value is listed as “as effective as normal RhoGAP”. For the same compound, the Ras/RasGAP complex formation result with Ras/RasGAP complex is listed as “readily formed”.
